# Patent publication US9744250B2, “Chemical model of a neurodegenerative disease, method for preparation and uses of same” (priority 2012, dated 2017)
# Legend:
# mitochondrial complex I = assay: Spectrophotometric analysis of complex I activity (NADH oxidation); format: biochemical, rat
# Experimental: (§1) The animal was then decapitated in order to collect from the brain either the cortex or the striatum, which were quickly placed in a Potter Elvejhem® containing 6 ml of extraction buffer at 4° C. (250 mM sucrose, 40 mM KCl, 2 mM EGTA, lmg/ml BSA, 20 mM Tris, pH=7.2). This mixture was homogenized to break open the cells and release the mitochondria and then centrifuged at 2000 g for 8 minutes to remove the larger membrane debris and the nuclei from the pellet. The supernatant was then recovered and centrifuged at 13,000 g for 11 minutes. The supernatant was discarded while the pellet containing a mitochondria-rich fraction was resuspended in 500 μl of respiration buffer at 4° C. (300 mM D-mannitol, 10 mM KCl, 10 mM KH2PO4, 5 mM MgCl2, pH=7.2). […]
# The kinetics of the oxidation reaction of NADH into NAD+ at 340 nm at 37° C. were continuously monitored by spectrophotometry using a JASCO V-530 spectrophotometer or a TECAN 1000M Infinite plate reader, set to a wavelength of 340 nm for 3 min. The amount of mitochondria extract to obtain the maximum activity introduced into the reaction volume was 100 μg with the spectrophotometer and 10 μg with the reader. […] The slope of the kinetics was then measured. […] The inhibition percentage was then calculated.
# α-synuclein = assay: Cellular accumulation of α-synuclein (Western blot) in SH-SY5Y cells; format: cell-based, human; conditions: 1 mM, 6 h incubation (+24 h without MPP+)
# Experimental: Cells were incubated under the same conditions as above with furosemide pyridinium (1 mM, incubation: 96 h) and MPP+ (1 mM, incubation: 6 h, wait 24 h). After incubation, the cells were trypsinized, rinsed with PBS, counted, then harvested in 100 μl of buffer containing: 250 mM sucrose; 70 mM KCl; 137 mm NaCl; 4.3 mm NaH2PO4; 1.4 mm KH2PO4, pH 7.2; and […] digitonin. Incubation at 4° C. was then conducted for 5 minutes before centrifuging at 13,000 g for 5 minutes to separate the cytosolic and lysosomal fraction from the mitochondrial fraction. Deposits of cytosolic fraction in the Western blot were adjusted according to the number of cells. The protein samples were diluted in 4× Laemmli and were then heated for 3 minutes at 95° C. to denature. They were loaded into the wells of gel. In addition to the samples, a molecular weight marker (Fermentas) was deposited in the gel. […] The transfer was carried out on PVDF membrane. The transfer was done in transfer buffer (25 mM Tris, 192 mM glycine, 10% methanol) overnight at 4° C. and 30V or for 2 hours at 4° C. and 80V. […] Then the membranes were immunolabeled for 1.5 h at room temperature with a primary antibody diluted in 1×PBS/0.2% Tween/3% milk. […] The primary antibody used was anti-α-synuclein, 1:500 (visualized with an anti-rabbit secondary antibody, 1:10,000).
# [1] = system: mitochondria isolated from rat cerebral cortex; assay: Respiratory control (oxygen consumption, malate/pyruvate) of isolated cerebral cortex mitochondria; format: biochemical; conditions: increasing concentration
# Experimental: as §1
# Added to the polarography chamber (Hansatech) were 30 μl of mitochondria solution (0.2 mg), 460 μL of respiration buffer, 5 μl of test compound solution (meaning MPP+ or furosemide pyridinium) (or its solubilizing solvent). […] The effect of the compound on respiratory control was evaluated (ratio of stage 3 to 4), which corresponds to the coupling of the respiratory chain, or in other words the ATP synthesis at complex V and the oxygen consumption due to complexes I to IV. The results are expressed as percentages of the value measured for mitochondria not treated with the test compound (but treated with the solubilizing solvent).
# SH-SY5Y neuronal cells = assay: Cell viability test in MTT; format: cell-based, human
# Experimental: Cells from SH-SY5Y human neuroblastomas were cultured in a DMEM medium containing 4.5 g·L^−1 glucose, 10% fetal calf serum, and 1% penicillin/streptomycin, and placed in an incubator at 37° C. with 7% CO2.
# In the various experiments, the SH-SY5Y cells were seeded at a density of 4×10^4 cells/mL. 24 h after seeding, the cells were exposed to the various test compounds at 37° C. for 24 h, 48 h, 72 h, or 96 h.
# This test consisted of rapidly measuring cellular metabolic activity in the presence of the study compound at different concentrations, in order to conduct a dose-response study. To do this, the tetrazolium salt MTT, 3-(4,5-dimethylthiazol-2-yl)-2,5-diphenyltetrazolium bromide (Amoroso et al., Biochim Biophys Acta, 1999, 1452(2):151-60), was placed in contact with the cells. MTT is reduced to formazan by living cells that have the capacity to metabolize it, unlike dead cells. To conduct this test, SH-SY5Y neuronal cells in 48-well plates were incubated for 24 h, 48 h, 72 h, and 96 h, with furosemide pyridinium at concentrations ranging from 0 to 1000 μM. Then MTT (0.5 mg/ml final) was added to each well and incubated at 37° C. for 2 h. At the end of incubation, after carefully removing the medium, DMSO was added (200 μL) to dissolve the cell membranes and the formazan crystals formed by the living cells. The toxicity of the molecule was evaluated by determining the amount of reduced MTT, doing so by measuring the absorbance at 550 nm as this value is proportional to the number of living cells. The results were expressed as a function of the values obtained for cells treated only with the solvent used to dissolve the compound of interest. To compare the toxicity of furosemide pyridinium to that of MPP+, the cells were incubated in the presence of MPP+ (0 to 1000 μM) for 6 h. The culture medium was replaced and the cells were incubated at 37° C. for an additional 24 h (no MPP+). Cell survival was measured at the end of these 24 hours of incubation as described above. When evaluating the effect of different concentrations of α-tocopherol (vitamin E), a membrane antioxidant, the cells were pretreated for 24 h with this antioxidant before being exposed to furosemide pyridinium at a concentration of 0.5 mM under the same experimental conditions as above.
# [2] = system: respiratory chain complexes II-V of rat cerebral cortex mitochondria; assay: Respiratory control after induction of complex II by succinate and inhibition of complex I by rotenone; format: biochemical; conditions: 1 mM, succinate
# Experimental: as §1
# Added to the polarography chamber (Hansatech) were 30 μl of mitochondria solution (0.2 mg), 460 μL of respiration buffer, 5 μl of test compound solution (meaning MPP+ or furosemide pyridinium) (or its solubilizing solvent). […] The effect of the compound on respiratory control was evaluated (ratio of stage 3 to 4), which corresponds to the coupling of the respiratory chain, or in other words the ATP synthesis at complex V and the oxygen consumption due to complexes I to IV. The results are expressed as percentages of the value measured for mitochondria not treated with the test compound (but treated with the solubilizing solvent). […]
# caspase-8 = assay: Caspase-8 activity (Ac-IETD-AFC cleavage) in SH-SY5Y cells; format: cell-based, human; conditions: 1 mM, 6 h (+24 h without MPP+)
# Experimental: Measurement of the activities of the various caspases is based on the ability of the caspases to cleave specific fluorescent substrates: Ac-DEVD-AFC for caspase-3, Ac-IETD-AFC for caspase-8, or Ac-LEHD-AFC for caspase-9. SH-SY5Y neuronal cells were incubated in 48-well plates with either furosemide pyridinium (1 mM) for 96 h or with MPP+ (1 mM) for 6 h, then 24 h of incubation with no MPP+. After incubation, the cells were trypsinized, then rinsed with PBS and counted, then harvested in 100 μl of buffer containing 30 mM HEPES, 0.3 mM EDTA, 100 mM NaCl, 0.15% Triton X-100, and 10 mM DTT. The cell extract was then incubated for 1 hour at 37° C. with the specific substrate (100 μM) in a 96-well plate. Fluorescence was measured at λex400 nm and λem505 nm in a fluorescence detection plate reader (TECAN Infinite M1000) (Yue et al., supra). The results were expressed as percentages relative to the measured activity of cells cultured under the same conditions and not subjected to any treatment.
compound,measurement,setting,value
"Clc1ccc(-[n+]2ccccc2)cc1.[Cl-] [1-(4-chlorophenyl) pyridinium, 1-(4-chlorophenyl) pyridinium chloride]",inhibition of complex I activity,mitochondrial complex I; concentration not given,95%
"Oc1ccc[n+](-c2ccc(Cl)cc2)c1.[Cl-] [1-(4-chlorophenyl)-3-hydroxypyridinium, 1-(4-chlorophenyl)-3-hydroxypyridinium chloride]",inhibition of complex I activity,mitochondrial complex I; 0.2 mM,complete inhibition
"C[n+]1ccc(-c2ccccc2)cc1 [MPP+, reference compound]",increase in the total amount of α-synuclein compared to control cells,α-synuclein,319%
same,respiratory control of cerebral cortex mitochondria induced by malate/pyruvate,[1],diminished
same,cell death,"SH-SY5Y neuronal cells; 1 mM, 6 h incubation (+24 h without MPP+)",massive cell death
same,EC50,"SH-SY5Y neuronal cells; 6 h incubation (+24 h without MPP+), read-out: EC50 (cell survival)",386 ± 19.2 µM
same,respiratory control of cortex mitochondria after induction by complex II,[2],not modified
same,change in caspase-8 activity,caspase-8,did not induce significant changes
Cc1c(C)c2c(c(C)c1O)CC[C@@](C)(CCC[C@H](C)CCC[C@H](C)CCCC(C)C)O2 [α-tocopherol],concentration at which the protective effect becomes visible,"SH-SY5Y neuronal cells; 24 h pretreatment, then 0.5 mM furosemide pyridinium",0.1 mg/mL
same,cell survival rate after 24 h pretreatment before 0.5 mM furosemide pyridinium,"SH-SY5Y neuronal cells; 24 h pretreatment, then 0.5 mM furosemide pyridinium 96 h",increased the cell survival rate in a dose-dependent manner
same,"increase of cell survival, α-tocopherol alone","SH-SY5Y neuronal cells; pretreatment 1 μg/mL, without furosemide pyridinium",20%
same,"change of cell survival, α-tocopherol alone","SH-SY5Y neuronal cells; pretreatment 0.01 and 0.1 μg/mL, without furosemide pyridinium",did not change cell survival
